According to US8815852B2, “Carbamoyloxy arylalkan arylpiperazine analgesics” (SK Biopharmaceuticals Co., Ltd., priority 2007, dated 2014):

Legend:
[1] = system: male ICR mouse; experiment: Formalin test - late phase in mouse; type: in vivo; conditions: ip, unit inferred
[2] = system: male ICR mouse; experiment: Acetic acid-induced writhing test in mouse; type: in vivo; conditions: Mus musculus; for ED50: unit not given (method doses in mg/kg), read-out: AA Writhing: ED50
Outline: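 Male ICR mice (30 to 35 g) dosed orally at 10 mg/kg, then given 0.8% acetic acid i.p. 1 h later. Writhes counted for 10 min and expressed as % suppression against vehicle. ED50 derived by linear regression over at least three doses.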

[3] = target: 5-HT2A receptor (Rattus norvegicus (Rat), UniProt P14842); experiment: Binding to 5-HT2A receptor ([3H]-Ketanserin, rat cortical membranes); design: species or system Sprague-Dawley (SD) rats; conditions: for IC50: 0.5 nM [3H]-Ketanserin, read-out: 5-HT2A: IC50 (Concentration required to be 50% suppressed); for inhibition at 1 µM: 1 h, read-out: 5-HT2A: Suppression
Experimental: Binding to 5-HT2A Receptor
6-week-old Sprague-Dawley (SD) rats were anesthetized in an ether container for 5 minutes, brains were separated from rats, and cortical regions were then separated from the brains of the rats. The cortical regions of the rats were put into a Tris-HCl buffer solution (50 mM, pH 7.7) and homogenized, and the homogenate was centrifuged twice at 4° C. at a rotary speed of 50,000 g to obtain a precipitate (membrane protein). The precipitate was put into a buffer solution, and homogenized, which was used later as a protein source. 0.5 nM [3H]-Ketanserin was used as a radioactive isotope, and 10 uM serotonin was used to remove non-specific bindings. 25 ul of the compound, 100 ul of an aqueous radioactive isotope solution, and 100 ul of the protein source were put together, and kept at 25° C. for 1 hour. The resulting mixture was filtered with a membrane filter in a 96-well harvester when the 96-well plate reaction was completed. The competitivity of the compound to [3H]-Ketanserin was determined by taking the membrane filter and measuring the radioactivity in a scintillation counter, and an IC50 value was determined by measuring the increasing concentration of the compound. The specific reaction of the compound accounted for 90% or more. The general experiments were carried out according to the method by Leysen et al. (1982, Eur. J. Pharmacol).

[4] = target: 5-HT1A receptor (Rattus norvegicus (Rat), UniProt P19327); experiment: Binding to 5-HT1A receptor ([3H]-8-OH-DPAT, rat cortical membranes); design: species or system Sprague-Dawley (SD) rats; conditions: for IC50: 2 nM [3H]-8-OH-DPAT, read-out: 5-HT1A: IC50 (Concentration required to be 50% suppressed); for inhibition at 1 µM: 1 h, read-out: 5-HT1A: Suppression
Experimental: Binding to 5-HT1A Receptor
6-week-old Sprague-Dawley (SD) rats were anesthetized in an ether container for 5 minutes, brains were separated from rats, and cortical regions were then separated from the brains of the rats. The cortical regions of the rats were put into a Tris-HCl buffer solution (50 mM, pH 7.4) and homogenized, and the homogenate was centrifuged twice at 4? at a rotary speed of 50,000 g to obtain a precipitate (membrane protein). The precipitate was put into a buffer solution, and homogenized, which was used later as a protein source. 2 nM [3H]-8-OH-DPAT was used as a radioactive isotope, and 10 uM serotonin was used to remove non-specific bindings. 25 ul of the compound, 100 ul of an aqueous radioactive isotope solution, and 100 ul of the protein source were put together, and kept at 25° C. for 1 hour. The resulting mixture was filtered with a membrane filter in a 96-well harvester when the 96-well plate reaction was completed. The competitivity of the compound to [3H]-8-OH-DPAT was determined by taking the membrane filter and measuring the radioactivity of the membrane filter in a scintillation counter, and an IC50 value was determined by measuring the increasing concentration of the compound. The specific reaction of the compound accounted for 90% or more. The general experiments were carried out according to the method by Middlemiss et al. (1984, Eur. J. Pharmacol.).

[5] = system: male ICR mouse; experiment: Formalin test - late phase in mouse; type: in vivo; conditions: po, unit inferred
Experimental: 3. Formalin Test—Late Phase in Mouse
A formalin test is another model for measuring an analgesic effect of drugs. […] These pain behaviors have a biphasic pattern, and therefore they are divided into an early-phase behavior within […] after the formalin administration; and a late-phase behavior up to 10 to 60 minutes. The medicinal effect observed in the formalin test-late phase means an analgesic effect of the test material in the inflammatory pain model, and also becomes a measure that may predict the medicinal effects in the neuropathic pain model (Vissers K et. al, 2003). A test material was orally administered to a male ICR mouse weighing 30 to 35 g. After 1 hour of the oral administration, 20 μl of a 2.5% formalin solution was subcutaneously injected into the planta surface of a mouse's hindlimb to induce pain. […] The analgesic effect of the test material is represented by the ‘suppression ratio of pain response’ {[(Pain response time of Vehicle-administered group−Pain response time of Test material-administered group)/(Pain response time of Vehicle-administered group)]×100%}, or ‘50% of Effective amount (ED50; an amount of a test material that is required to suppress 50% of pain behaviors) of Test material’. The ED50 (median effective dose) was determined by calculating the suppression ratio of pain response in at least three doses of test materials and subjecting to the linear regression.

5-HT2A receptor, sequence (P14842 whole entry): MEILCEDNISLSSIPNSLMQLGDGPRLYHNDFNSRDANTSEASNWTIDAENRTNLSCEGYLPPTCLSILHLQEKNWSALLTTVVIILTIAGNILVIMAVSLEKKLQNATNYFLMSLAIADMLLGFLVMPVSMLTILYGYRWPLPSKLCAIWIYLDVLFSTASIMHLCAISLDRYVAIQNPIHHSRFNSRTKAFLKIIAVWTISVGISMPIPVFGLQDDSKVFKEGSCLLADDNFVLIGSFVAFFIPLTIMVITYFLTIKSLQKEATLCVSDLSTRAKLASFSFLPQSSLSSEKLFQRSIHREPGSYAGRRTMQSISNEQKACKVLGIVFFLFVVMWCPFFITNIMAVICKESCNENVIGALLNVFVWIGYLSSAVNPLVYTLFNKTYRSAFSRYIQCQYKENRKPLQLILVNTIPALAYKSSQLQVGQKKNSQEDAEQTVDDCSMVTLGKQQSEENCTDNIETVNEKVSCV
5-HT1A receptor, sequence (P19327 whole entry): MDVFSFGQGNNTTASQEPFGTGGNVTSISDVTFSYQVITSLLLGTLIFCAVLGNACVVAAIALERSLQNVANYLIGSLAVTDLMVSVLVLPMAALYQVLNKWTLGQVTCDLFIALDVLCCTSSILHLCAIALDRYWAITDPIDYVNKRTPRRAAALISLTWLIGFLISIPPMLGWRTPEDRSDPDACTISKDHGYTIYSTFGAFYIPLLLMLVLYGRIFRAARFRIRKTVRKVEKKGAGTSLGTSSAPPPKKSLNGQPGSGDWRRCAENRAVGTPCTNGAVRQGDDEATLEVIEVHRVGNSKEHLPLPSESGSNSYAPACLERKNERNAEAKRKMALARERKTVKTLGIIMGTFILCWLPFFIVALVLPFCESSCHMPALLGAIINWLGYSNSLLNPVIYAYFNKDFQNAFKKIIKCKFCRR

| Compound | ED50 [1] [mg/kg] | ED50 ([2]; ip) [mg/kg] | ED50 ([2]; po) [mg/kg] | IC50 [3] [nM] | IC50 [4] [nM] | ED50 [5] [mg/kg] | inhibition in vivo at 10 mg/kg ([2]; po, 1 h, at 10 po (method: 10 mg/kg oral, 1 hour before acetic acid), read-out: AA Writhing: Suppression ratio of Pain response) [%] | inhibition at 1 µM [3] [%] | inhibition at 1 µM [4] [%] |
| --- | --- | --- | --- | --- | --- | --- | --- | --- | --- |
| NC(=O)OC(CCCN1CCN(c2ccccc2)CC1)c1ccccc1 (centres unmarked) [Example 94, Carbamic acid 1-phenyl-4-(4-phenyl-piperazin-1-yl)-butyl ester] | 2.79 | 0.25 | 3.61 | 514 | 89.8 | – | – | – | – |
| NC(=O)OC(CCN1CCN(c2ccccc2)CC1)c1ccc([N+](=O)[O-])cc1 (centres unmarked) [Example 9, Carbamic acid 1-(4-nitro-phenyl)-3-(4-phenyl-piperazin-1-yl)-propyl ester] | – | – | – | – | – | 2.39 | 91 | 88 | 81.4 |
| NC(=O)OC(CCN1CCN(c2ccccc2)CC1)c1ccccc1 (centres unmarked) [Example 1, Carbamic acid 1-phenyl-3-(4-phenyl-piperazin-1-yl)-propyl ester] | – | – | 6.31 | 139 | 434 | 8.43 | – | – | – |
| NC(=O)OC(CCN1CCN(c2ccccc2)CC1)c1ccc(F)cc1 (centres unmarked) [Example 6, Carbamic acid 1-(4-fluoro-phenyl)-3-(4-phenyl-piperazin-1-yl)-propyl ester] | – | – | 2.79 | – | – | 4.45 | – | 84.7 | 65.5 |
